Measurements: patent US20050250818A1, “Ortho substituted aryl or heteroaryl amide compounds” (Pfizer Inc, priority 2004, published 2005)

Molecular target: T1, human EP4 receptors (Homo sapiens, UniProt P35408)
T1 construct: expressed in transfected cells
Assay: cAMP assay in human EP4 transfectant
Assay type: cell-based
Details: HEK293 cells expressing human EP4 receptors; 1 nM PGE2, 0.2 mM IBMX, 37° C. for 10 min
Method: cAMP Assay in Human EP4 Transfectant HEK293 cells expressing human EP4 receptors (hEP4 cells) are maintained in DMEM containing 10% FBS and 500 μg/ml geneticin. For harvesting hEP4 cells, culture medium is aspirated and cells in 75 cm^2 flask are washed with 10 ml of phosphate buffered saline (PBS). Another 10 ml of PBS is added to the cells and incubated for 20 min at room temperature. Human EP4 cells are harvested by pipetting and centrifuged at 300×g for 4 min. Cells are resuspended in DMEM without neutral red at a density of 7×10^5 cells/ml containing 0.2 mM IBMX (PDE inhibitor), 1 nM PGE2 and test compounds in PCR-tubes, and incubated at 37° C. for 10 min. The reaction is stopped by heating at 100° C. for 10 min with thermal cycler. Concentration of cAMP in reaction mixtures is determined with SPA cAMP Kit (Amersham) or cAMP Screen™ (Applied Biosystems) according to the manufacture's instruction. Reference: Eur. J. Pharmacol. 340 (1997) 227-241 cAMP assay in human EP4 transfectant were conducted using the method described above. IC50: the concentration of the individual compound required to reduce the amount of ligand by 50%.

T1 sequence (P35408 whole entry): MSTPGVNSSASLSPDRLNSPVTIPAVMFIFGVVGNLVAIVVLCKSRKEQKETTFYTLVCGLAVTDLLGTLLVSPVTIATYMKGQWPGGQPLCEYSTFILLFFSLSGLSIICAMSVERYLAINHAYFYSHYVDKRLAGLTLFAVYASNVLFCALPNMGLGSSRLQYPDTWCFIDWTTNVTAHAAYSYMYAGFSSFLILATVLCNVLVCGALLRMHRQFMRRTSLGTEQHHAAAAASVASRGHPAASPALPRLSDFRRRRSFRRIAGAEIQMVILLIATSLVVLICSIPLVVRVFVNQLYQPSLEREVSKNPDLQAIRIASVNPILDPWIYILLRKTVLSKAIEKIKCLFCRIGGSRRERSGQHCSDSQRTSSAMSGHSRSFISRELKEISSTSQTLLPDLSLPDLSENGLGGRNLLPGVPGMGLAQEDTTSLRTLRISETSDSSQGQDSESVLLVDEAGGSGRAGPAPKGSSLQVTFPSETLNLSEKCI

Structure (SMILES) | IC50
C[C@H](NC(=O)c1cc(Cl)ccc1OCc1ncccc1Cl)c1ccc(C(=O)O)cc1 [EXAMPLE 47, 4-[(1S)-1-({5-CHLORO-2-[(3-CHLOROPYRIDIN-2-YL)METHOXY]BENZOYL}AMINO)ETHYL]BENZOIC ACID] | 480 nM
COC(C)(C)CCOc1ccc(Cl)cc1C(=O)N[C@@H](C)c1ccc(C(=O)O)cc1 [EXAMPLE 20, 4-((1S)-1-{[5-CHLORO-2-(3-METHOXY-3-METHYLBUTOXY)BENZOYL]AMINO}ETHYL)BENZOIC ACID] | 510 nM
Cc1cc(COc2ccc(Cl)cc2C(=O)N[C@@H](C)c2ccc(C(=O)O)cc2)no1 [EXAMPLE 44, 4-[(1S)-1-({5-CHLORO-2-[(5-METHYLISOXAZOL-3-YL)METHOXY]BENZOYL}AMINO)ETHYL]BENZOIC ACID] | 130 nM
C[C@H](NC(=O)c1cc(Cl)ccc1O[C@H]1CC[C@H](C)CC1)c1ccc(C(=O)O)cc1 [EXAMPLE 18, 4-[(1S)-1-({5-CHLORO-2-[(TRANS-4-METHYLCYCLOHEXYL)OXY]BENZOYL}AMINO)ETHYL]BENZOIC ACID] | 260 nM
C[C@H](NC(=O)c1cc(Cl)cnc1OCCc1ccc(F)cc1)c1ccc(C(=O)O)cc1 [EXAMPLE 9, 4-{(1S)-1-[({5-CHLORO-2-[2-(4-FLUOROPHENYL)ETHOXY]PYRIDIN-3-YL}CARBONYL)AMINO]ETHYL}BENZOIC ACID] | 240 nM
O=C(O)c1ccc(CNC(=O)c2cc(Cl)ccc2OCCc2ccccc2Cl)cc1 [EXAMPLE 2, 4-[({5-CHLORO-2-[2-(2-CHLOROPHENYL)ETHOXY]BENZOYL}AMINO)METHYL]BENZOIC ACID] | 108 nM
C[C@H](NC(=O)c1cc(Cl)ccc1OCCC1CCOCC1)c1ccc(C(=O)O)cc1 [EXAMPLE 42, 4-[(1S)-1-({5-CHLORO-2-[2-(TETRAHYDRO-2H-PYRAN-4-YL)ETHOXY]BENZOYL}AMINO)ETHYL]BENZOIC ACID] | 467 nM
O=C(O)c1ccc(CNC(=O)c2cc(Cl)ccc2OCCc2ccc(Cl)cc2)cc1 [EXAMPLE 4, 4-[({5-CHLORO-2-[2-(4-CHLOROPHENYL)ETHOXY]BENZOYL}AMINO)METHYL]BENZOIC ACID] | 107 nM
C[C@H](NC(=O)c1cc(Cl)cnc1N(C)Cc1cccc(F)c1)c1ccc(C(=O)O)cc1 [EXAMPLE 53, 4-{(1S)-1-[({5-CHLORO-2-[(3-FLUOROBENZYL)(METHYL)AMINO]PYRIDIN-3-YL}CARBONYL)AMINO]ETHYL}BENZOIC ACID] | 180 nM
C[C@H](NC(=O)c1cc(Cl)ccc1OCCOc1ccc(F)cc1)c1ccc(C(=O)O)cc1 [EXAMPLE 28, 4-[(1S)-1-({5-CHLORO-2-[2-(4-FLUOROPHENOXY)ETHOXY]BENZOYL}AMINO)ETHYL]BENZOIC ACID] | 210 nM

Compounds with a lower IC50, results first:

IC50 | Structure (SMILES)
55 nM | C[C@H](NC(=O)c1cc(Cl)ccc1OCc1ccc(F)cc1Cl)c1ccc(C(=O)O)cc1 [EXAMPLE 46, 4-[(1S)-1-({5-CHLORO-2-[(2-CHLORO-4-FLUOROBENZYL)OXY]BENZOYL}AMINO)ETHYL]BENZOIC ACID]
48 nM | C[C@H](NC(=O)c1cc(Cl)ccc1OCCc1ccccc1F)c1ccc(C(=O)O)cc1 [EXAMPLE 10, 4-[(1S)-1-({5-CHLORO-2-[2-(2-FLUOROPHENYL)ETHOXY]BENZOYL}AMINO)ETHYL]BENZOIC ACID]
65 nM | C[C@H](NC(=O)c1cc(Cl)ccc1OCc1ccc(Cl)cc1F)c1ccc(C(=O)O)cc1 [EXAMPLE 45, 4-[(1S)-1-({5-CHLORO-2-[(4-CHLORO-2-FLUOROBENZYL)OXY]BENZOYL}AMINO)ETHYL]BENZOIC ACID]
41 nM | C[C@H](NC(=O)c1cc(Cl)ccc1OCCc1ccc(F)cc1)c1ccc(C(=O)O)cc1 [EXAMPLE 34, 4-[(1S)-1-({5-CHLORO-2-[2-(4-FLUOROPHENYL)ETHOXY]BENZOYL}AMINO)ETHYL]BENZOIC ACID]
76 nM | C[C@H](NC(=O)c1cc(Cl)cnc1OCc1ccccc1Cl)c1ccc(C(=O)O)cc1 [EXAMPLE 39, 4-{(1S)-1-[({5-CHLORO-2-[(2-CHLOROBENZYL)OXY]PYRIDIN-3-YL}CARBONYL)AMINO]ETHYL}BENZOIC ACID]
100 nM | C[C@H](NC(=O)c1cc(Cl)cnc1N(C)Cc1ccccc1Cl)c1ccc(C(=O)O)cc1 [EXAMPLE 48, 4-{(1S)-1-[({5-CHLORO-2-[(2-CHLOROBENZYL)(METHYL)AMINO]PYRIDIN-3-YL}CARBONYL)AMINO]ETHYL}BENZOIC ACID]
